In ChEMBL document CHEMBL4382243, “The synthesis of 4-arylamido-2-arylaminoprimidines as potent EGFR T790M/L858R inhibitors for NSCLC” (Bioorg Med Chem, 2018):
pIC50: −log10 of the molar value. The source made the active and inactive calls. The rule behind the calls is not given here.

Experiments:
A-431 = experiment: cells; assay type: ADME, cell-based; details: Homo sapiens, A-431, 72 h;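 also: growth inhibition of A-431 cells expressing wild-type EGFR, read out by MTT assay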
Description: Antiproliferative activity against human A431 cells harboring wild-type EGFR after 72 hrs by MTT assay

NCI-H1975 [1] = experiment: Antiproliferative activity against human NCI-H1975 cells harboring EGFR T790M/L858R double mutant after 72 hrs by MTT assay; assay type: functional, cell-based; details: NCI-H1975, 72 h
cells = assay type: ADME, cell-based; details: Homo sapiens, NHBE, 72 h
Description: Antiproliferative activity against NHBE cells after 72 hrs by MTT assay

[2] = target: Epidermal growth factor receptor (Homo sapiens, UniProt P00533); assay type: ADME, cell-based, Sf9
Description: Inhibition of wild-type human N-terminal GST-tagged EGFR (695 to end residues) expressed in baculovirus infected Sf9 insect cells using Poly (4:1 Glu, Tyr) as substrate after 60 mins in presence of ATP by ADP-Glo assay

A549 = experiment: cells; assay type: functional, cell-based; details: Homo sapiens, A549, 72 h
Description: Antiproliferative activity against human A549 cells after 72 hrs by MTT assay

[3] = target: Epidermal growth factor receptor (Homo sapiens, UniProt P00533, L858R/T790M); assay type: cell-based, Sf9
NCI-H23 = experiment: Antiproliferative activity against human NCI-H23 cells after 72 hrs by MTT assay; assay type: functional, cell-based; details: NCI-H23, 72 h
ASPC1 = experiment: cells; assay type: functional, cell-based; details: Homo sapiens, ASPC1, 72 h;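 also: growth inhibition of the cells quantified with an MTT readout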
Description: Antiproliferative activity against human Aspc-1 cells after 72 hrs by MTT assay

NCI-H1975 [4] = experiment: Antiproliferative activity against human NCI-H1975 cells harboring EGFR T790M/L858R double mutant assessed as cell viability at 10 uM after 48 hrs by MTT assay (reference value: 98.3%); assay type: functional; details: for viability at 10 µM: Homo sapiens, NCI-H1975, 48 h, read-out: Activity
NCI-H1975 [5] = experiment: Antiproliferative activity against human NCI-H1975 cells harboring EGFR T790M/L858R double mutant assessed as cell viability at 1 uM after 48 hrs by MTT assay (reference value: 98.3%); assay type: functional; details: for viability at 1 µM: Homo sapiens, NCI-H1975, 48 h, read-out: Activity
NCI-H1975 [6] = experiment: Antiproliferative activity against human NCI-H1975 cells harboring EGFR T790M/L858R double mutant assessed as cell viability at 1 uM after 72 hrs by MTT assay (reference value: 98.3%); assay type: functional; details: for viability at 1 µM: Homo sapiens, NCI-H1975, 72 h, read-out: Activity
NCI-H1975 [7] = experiment: Induction of apoptosis in human NCI-H1975 cells harboring EGFR T790M/L858R double mutant assessed as membrane blebbing at 1 to 20 uM after 72 hrs by DAPI staining based fluorescent microscopic analysis; assay type: functional, cell-based
NCI-H1975 [8] = experiment: Antiproliferative activity against human NCI-H1975 cells harboring EGFR T790M/L858R double mutant assessed as cell viability at 10 uM after 24 hrs by MTT assay (reference value: 98.3%); assay type: functional; details: for viability at 10 µM: Homo sapiens, NCI-H1975, 24 h, read-out: Activity
NCI-H1975 [9] = experiment: Antiproliferative activity against human NCI-H1975 cells harboring EGFR T790M/L858R double mutant at 1 to 20 uM after 72 hrs by acridine orange/ethidium bromide staining based fluorescent microscopic analysis; assay type: functional, cell-based
NCI-H1975 [10] = experiment: Induction of apoptosis in human NCI-H1975 cells harboring EGFR T790M/L858R double mutant assessed as nuclear condensation at 1 to 20 uM after 72 hrs by DAPI staining based fluorescent microscopic analysis; assay type: functional, cell-based
NCI-H1975 [11] = experiment: Antiproliferative activity against human NCI-H1975 cells harboring EGFR T790M/L858R double mutant assessed as cell viability at 10 uM after 72 hrs by MTT assay (reference value: 98.3%); assay type: functional; details: for viability at 10 µM: Homo sapiens, NCI-H1975, 72 h, read-out: Activity
NCI-H1975 [12] = experiment: Antiproliferative activity against human NCI-H1975 cells harboring EGFR T790M/L858R double mutant assessed as cell viability at 0.1 uM after 24 hrs by MTT assay (reference value: 98.3%); assay type: functional; details: for viability at 0.1 µM: Homo sapiens, NCI-H1975, 24 h, read-out: Activity
NCI-H1975 [13] = experiment: Antimigratory activity against human NCI-H1975 cells at 5 to 10 uM up to 48 hrs by wound healing assay; assay type: functional, cell-based
NCI-H1975 [14] = experiment: Induction of apoptosis in human NCI-H1975 cells harboring EGFR T790M/L858R double mutant assessed as apoptotic body formation at 1 to 20 uM after 72 hrs by DAPI staining based fluorescent microscopic analysis; assay type: functional, cell-based
NCI-H1975 [15] = experiment: Antiproliferative activity against human NCI-H1975 cells harboring EGFR T790M/L858R double mutant assessed as cell viability at 0.1 uM after 48 hrs by MTT assay (reference value: 98.3%); assay type: functional; details: for viability at 0.1 µM: Homo sapiens, NCI-H1975, 48 h, read-out: Activity
NCI-H1975 [16] = experiment: Antiproliferative activity against human NCI-H1975 cells harboring EGFR T790M/L858R double mutant assessed as cell viability at 1 uM after 24 hrs by MTT assay (reference value: 98.3%); assay type: functional; details: for viability at 1 µM: Homo sapiens, NCI-H1975, 24 h, read-out: Activity
NCI-H1975 [17] = experiment: Antiproliferative activity against human NCI-H1975 cells harboring EGFR T790M/L858R double mutant assessed as cell viability at 0.1 uM after 72 hrs by MTT assay (reference value: 98.3%); assay type: functional; details: for viability at 0.1 µM: Homo sapiens, NCI-H1975, 72 h, read-out: Activity

Epidermal growth factor receptor (Homo sapiens, UniProt P00533, L858R/T790M), sequence (P00533 25-1210 T790M/L858R limits assumed): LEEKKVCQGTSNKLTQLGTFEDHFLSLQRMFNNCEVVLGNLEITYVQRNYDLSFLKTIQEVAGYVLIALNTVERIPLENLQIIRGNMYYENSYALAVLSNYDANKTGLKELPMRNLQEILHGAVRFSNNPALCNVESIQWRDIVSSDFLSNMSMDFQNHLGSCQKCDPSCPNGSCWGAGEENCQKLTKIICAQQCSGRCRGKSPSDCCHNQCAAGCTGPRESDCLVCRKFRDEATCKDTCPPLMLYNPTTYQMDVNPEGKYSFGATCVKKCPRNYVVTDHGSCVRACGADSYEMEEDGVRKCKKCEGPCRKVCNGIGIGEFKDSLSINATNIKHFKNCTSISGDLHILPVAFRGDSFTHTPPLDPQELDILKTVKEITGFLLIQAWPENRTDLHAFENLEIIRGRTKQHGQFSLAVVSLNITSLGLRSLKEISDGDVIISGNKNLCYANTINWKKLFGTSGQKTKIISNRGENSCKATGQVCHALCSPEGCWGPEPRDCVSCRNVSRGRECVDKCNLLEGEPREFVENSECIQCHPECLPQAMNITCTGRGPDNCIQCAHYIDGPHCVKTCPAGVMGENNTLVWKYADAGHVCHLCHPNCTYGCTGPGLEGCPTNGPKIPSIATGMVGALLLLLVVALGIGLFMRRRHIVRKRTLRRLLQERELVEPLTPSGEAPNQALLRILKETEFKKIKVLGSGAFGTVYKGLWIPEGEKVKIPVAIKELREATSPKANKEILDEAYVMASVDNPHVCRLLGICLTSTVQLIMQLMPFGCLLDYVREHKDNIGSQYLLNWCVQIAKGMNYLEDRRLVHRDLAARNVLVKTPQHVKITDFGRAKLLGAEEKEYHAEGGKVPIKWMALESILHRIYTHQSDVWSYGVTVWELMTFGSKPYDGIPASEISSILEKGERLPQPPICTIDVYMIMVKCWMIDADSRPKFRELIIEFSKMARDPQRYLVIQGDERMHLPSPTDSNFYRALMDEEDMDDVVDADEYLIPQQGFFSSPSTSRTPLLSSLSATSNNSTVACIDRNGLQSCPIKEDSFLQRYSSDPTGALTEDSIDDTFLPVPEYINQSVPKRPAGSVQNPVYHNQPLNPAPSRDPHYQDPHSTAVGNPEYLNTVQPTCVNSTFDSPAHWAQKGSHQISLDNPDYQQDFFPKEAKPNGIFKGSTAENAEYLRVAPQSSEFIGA
Epidermal growth factor receptor (Homo sapiens, UniProt P00533), sequence (P00533 whole entry): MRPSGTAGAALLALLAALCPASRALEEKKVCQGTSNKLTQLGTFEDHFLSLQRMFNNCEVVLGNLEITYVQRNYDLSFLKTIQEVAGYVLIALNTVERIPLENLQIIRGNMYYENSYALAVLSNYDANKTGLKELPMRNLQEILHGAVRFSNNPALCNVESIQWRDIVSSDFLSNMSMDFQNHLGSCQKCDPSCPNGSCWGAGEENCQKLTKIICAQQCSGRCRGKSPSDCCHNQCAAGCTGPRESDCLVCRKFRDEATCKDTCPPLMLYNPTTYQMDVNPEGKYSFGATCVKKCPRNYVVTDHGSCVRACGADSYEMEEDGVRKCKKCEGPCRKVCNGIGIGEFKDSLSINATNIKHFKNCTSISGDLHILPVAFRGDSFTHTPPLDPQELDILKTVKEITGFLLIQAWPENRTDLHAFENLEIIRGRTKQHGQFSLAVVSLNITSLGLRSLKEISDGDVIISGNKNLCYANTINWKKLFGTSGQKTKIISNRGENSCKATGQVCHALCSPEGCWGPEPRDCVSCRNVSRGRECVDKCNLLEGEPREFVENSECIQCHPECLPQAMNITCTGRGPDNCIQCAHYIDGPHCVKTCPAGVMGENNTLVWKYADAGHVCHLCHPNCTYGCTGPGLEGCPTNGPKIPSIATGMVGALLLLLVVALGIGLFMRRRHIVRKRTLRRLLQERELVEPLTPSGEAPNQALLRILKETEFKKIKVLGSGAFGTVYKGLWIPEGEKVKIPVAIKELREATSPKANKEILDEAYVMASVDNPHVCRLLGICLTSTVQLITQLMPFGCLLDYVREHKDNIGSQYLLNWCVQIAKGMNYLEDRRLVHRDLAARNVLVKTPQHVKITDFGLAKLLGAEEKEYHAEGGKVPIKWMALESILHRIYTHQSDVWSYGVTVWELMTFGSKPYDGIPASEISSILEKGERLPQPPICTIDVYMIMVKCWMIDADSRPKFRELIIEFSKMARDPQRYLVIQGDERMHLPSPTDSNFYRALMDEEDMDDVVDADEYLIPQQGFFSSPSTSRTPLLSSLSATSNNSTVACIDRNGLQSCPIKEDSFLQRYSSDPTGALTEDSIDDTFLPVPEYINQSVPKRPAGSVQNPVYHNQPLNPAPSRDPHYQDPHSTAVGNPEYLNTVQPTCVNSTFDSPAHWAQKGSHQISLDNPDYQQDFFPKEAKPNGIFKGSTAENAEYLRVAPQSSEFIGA

Compound	pIC50 (A-431)	pIC50 (NCI-H1975 [1])	pIC50 (cells)	pIC50 [2]	pIC50 (A549)	pIC50 [3]	pIC50 (NCI-H23)	pIC50 (ASPC1)	further results
C=CC(=O)Nc1cc(Nc2nccc(NC(=O)c3ccccc3)n2)c(OC)cc1N(C)C	< 4.70	< 4.70	–	–	–	–	–	–	–
C=CC(=O)Nc1cc(Nc2nccc(NC(=O)c3ccc(C(F)(F)F)cc3)n2)c(OC)cc1N1CCN(C)CC1	5.04	5.47	4.71	6.82	5.10	7.55	5.04	< 5.00	–
C=CC(=O)Nc1cc(Nc2nccc(NC(=O)c3cccc4ccccc34)n2)c(OC)cc1N1CCN(C)CC1	5.11	5.96	4.72	6.87	5.17	7.48	4.97	5.18	–
C=CC(=O)Nc1cc(Nc2nccc(NC(=O)c3ccc(C(F)(F)F)cc3)n2)c(OC)cc1N1CCC(C(N)=O)CC1	< 4.70	4.81	–	6.90	–	7.18	–	–	–
C=CC(=O)Nc1cc(Nc2nccc(NC(=O)c3ccc(C(F)(F)F)cc3)n2)c(OC)cc1N(C)CCN(C)C	5.14	5.49	4.89	6.96	5.01	7.33	5.10	5.10	–
C=CC(=O)Nc1cc(Nc2nccc(NC(=O)c3ccccc3)n2)c(OC)cc1N(C)CCN(C)C	5.97	5.87	4.82	6.50	5.76	6.85	< 4.80	5.45	–
C=CC(=O)Nc1cc(Nc2nccc(NC(=O)c3ccc(OC)c(OC)c3)n2)c(OC)cc1N(C)CCN(C)C	5.18	5.58	4.90	6.73	5.40	6.91	4.81	5.48	–
C=CC(=O)Nc1cc(Nc2nccc(NC(=O)c3ccc(OC)c(OC)c3)n2)c(OC)cc1N1CCN(C)CC1	4.93	5.78	4.57	6.80	5.17	7.90	< 4.80	< 5.00	viability at 10 µM (NCI-H1975 [4]): 11.8%; viability at 1 µM (NCI-H1975 [5]): 74.8%; viability at 1 µM (NCI-H1975 [6]): 52.8%; Activity (NCI-H1975 [7]): Active; viability at 10 µM (NCI-H1975 [8]): 41.4%; Activity (NCI-H1975 [9]): Active; Activity (NCI-H1975 [10]): Active; viability at 10 µM (NCI-H1975 [11]): 5.8%; viability at 0.1 µM (NCI-H1975 [12]): 93.8%; Activity (NCI-H1975 [13]): Active; Activity (NCI-H1975 [14]): Active; viability at 0.1 µM (NCI-H1975 [15]): 91.6%; viability at 1 µM (NCI-H1975 [16]): 85.4%; viability at 0.1 µM (NCI-H1975 [17]): 90.2%
C=CC(=O)Nc1cc(Nc2nccc(NC(=O)c3cccc(OC)c3)n2)c(OC)cc1N(C)CCN(C)C	5.38	5.94	4.91	6.81	5.52	7.23	4.93	5.47	–
C=CC(=O)Nc1cc(Nc2nccc(NC(=O)c3ccc(OC)c(OC)c3)n2)c(OC)cc1N1CCC(C(N)=O)CC1	5.02	5.84	< 4.40	6.89	5.35	7.26	< 4.80	< 5.00	–
C=CC(=O)Nc1cc(Nc2nccc(NC(=O)c3ccc(OC)c(OC)c3)n2)c(OC)cc1N(C)C	4.74	5.67	–	6.83	–	7.40	–	–	–
C=CC(=O)Nc1cc(Nc2nccc(-c3cn(C)c4ccccc34)n2)c(OC)cc1N(C)CCN(C)C [OSIMERTINIB]	[…]	[…]	< 4.40	–	5.49	–	–	5.40	Activity (NCI-H1975 [4]): 1.71%; Activity (NCI-H1975 [5]): 59%; Activity (NCI-H1975 [6]): 33.5%; Activity (NCI-H1975 [8]): 3.68%; Activity (NCI-H1975 [11]): 1.42%; Activity (NCI-H1975 [12]): 87.1%; Activity (NCI-H1975 [15]): 83.6%; Activity (NCI-H1975 [16]): 78.6%; Activity (NCI-H1975 [17]): 77.2%
C=CC(=O)Nc1cc(Nc2nccc(NC(=O)c3cccc(OC)c3)n2)c(OC)cc1N1CCC(C(N)=O)CC1	4.88	4.94	–	7.30	–	7.49	–	–	–
C=CC(=O)Nc1cc(Nc2nccc(NC(=O)c3cccc(OC)c3)n2)c(OC)cc1N1CCN(C)CC1	5.80	5.37	5.60	6.83	5.19	7.26	4.80	< 5.00	–
C=CC(=O)Nc1cc(Nc2nccc(NC(=O)c3ccccc3)n2)c(OC)cc1N1CCC(C(N)=O)CC1	4.81	< 4.70	–	6.74	–	9.23	–	–	–
COc1cc2ncnc(Nc3ccc(F)c(Cl)c3)c2cc1OCCCN1CCOCC1 [GEFITINIB]	–	–	–	–	–	–	–	–	viability at 10 µM (NCI-H1975 [4]): 32.7%; viability at 1 µM (NCI-H1975 [5]): 84.3%; viability at 1 µM (NCI-H1975 [6]): 63.2%; viability at 10 µM (NCI-H1975 [8]): 48.7%; viability at 10 µM (NCI-H1975 [11]): 18.7%; viability at 0.1 µM (NCI-H1975 [12]): 97.6%; viability at 0.1 µM (NCI-H1975 [15]): 93.5%; viability at 1 µM (NCI-H1975 [16]): 90.6%; viability at 0.1 µM (NCI-H1975 [17]): 89.9%
C=CC(=O)Nc1cc(Nc2nccc(NC(=O)c3ccccc3)n2)c(OC)cc1N1CCN(C)CC1	5.40	5.85	4.62	6.81	5.22	6.92	< 4.80	< 5.00	–
